In experiment [1] the test system is hydrochloric acid ulcer. Put plainly: Action against hydrochloric acid ulcer. Format: in vivo, Wistar-strain male rats. To be noted: po, 1 h; rat, 100 mg/kg peroral administration, 30 min before 0.6 N-HCl; ulcer area; read-out: Anti-ulcer action (hydrochloric acid ulcer model), Inhibition rate against non-administered animal. As for the experimental part:
(1) Action against hydrochloric acid ulcer Wistar-strain male rats (weight 180 g, 6 to 7 rats per group) were starved for 18 hours and left without water for 4 hours before the test. The test drug was formed into an aqueous solution or suspended in an aqueous solution of 0.5% carboxymethyl cellulose and administered orally at a volume of 0.5 ml/100 g, and 30 minutes after administration, 1 ml of 0.6 N-HCl was orally administered. One hour after the administration, the stomach was excised and injected with 5 ml of 5% formalin solution. After the formalin fixation for 10 min., the stomach was cut open along the greater curvature, and the area (mm^2) of an ulcer generated at the corpus of stomach was measured. The total sum of the area of ulcer generated per rat was compared with that of the control group. The control group was administered with water or a 0.5% aqueous carboxymethyl cellulose solution. The Ulcer Index was determined as the inhibition ratio (%).

Experiment [2] concerns restrictive water immersion stress ulcer. The experiment in a line: Action against restrictive water immersion stress ulcer. Format: in vivo, Wistar-strain male rats. The conditions noted are these: po; rat, 100 mg/kg peroral administration, 7 hours water immersion stress at 23° C.; ulcer length; read-out: Anti-ulcer action (stress ulcer), Inhibition rate against non-administered animal. The procedure:
(2) Action against restrictive water immersion stress ulcer Wistar-strain male rats (weight 180 g, 6 to 8 rats per group) were starved for 18 hours before the test. The test drug was administered orally by the same method as used in (1). Thirty minutes after the administration, the rats were placed in a restrictive stress cage, and immersed to the xiphoideus process of the rat in water of 23° C. After the loading stress for 7 hours, the stomach was excised and, fixed in formalin by the same method as used in (1), and the length (mm) of the ulcer was measured. The total length of an ulcer generated per rat was compared with that of the control group. An Ulcer Index was determined as the inhibition ratio (%).

Where a name gives a salt, the structure may show the parent alone. Where a SMILES comes first, the peptide text is derived from it. [ ]: non-standard residue; d: D form. Trx = NC[C@H]1CC[C@H](C(=O)O)CC1; Sar = CNCC(=O)O

`CC1CCC(NC(=O)[C@H](Cc2ccccc2)NC(=O)c2ccc(NC(=N)N)cc2)CC1` (mixture of isomers) [Compound 12, N-(4-guanidinobenzoyl)-L-phenylalanine 4-cis/trans-methylcyclohexylamide hydrochloride]: the results for the inhibition in vivo at 100 mg/kg in experiment [1] and in experiment [2] were 89.4% and 65.8%, respectively.
The matching figures for `CC(=O)c1ccc(NC(=O)C(Cc2cccc(Oc3ccccc3)c2)NC(=O)[C@H]2CC[C@H](CN)CC2)cc1` (mixture of isomers) [Compound 32, N-(trans-4-aminomethylcyclohexylcarbonyl)-3-phenoxy-DL-phenylalanine 4-acetylanilide hydrochloride]: 86.4% and 67.4%.
The matching figures for `NC[C@H]1CC[C@H](C(=O)N[C@@H](Cc2ccccc2)C(N)=O)CC1` [Compound 1, N-[trans-4-aminomethylcyclohexyl-carbonyl]-L-phenylalanine amide hydrochloride]: 77.1% and 88.2%.
Regarding `NCc1ccc(C(=O)N[C@@H](Cc2ccccc2)C(N)=O)cc1` [Compound 2, N-(4-aminomethylbenzoyl)-L-phenyl-alanineamide hydrochloride], the inhibition in vivo at 100 mg/kg in experiment [1] came out at 58.2%.
On to `CCOC(=O)c1ccccc1NC(=O)[C@H](Cc1ccccc1)NC(=O)[C@H]1CC[C@H](CN)CC1` [Compound 3], for which the inhibition in vivo at 100 mg/kg in experiment [1] was determined as 91.4%; in experiment [2], 52.2%.
The matching figures for `CCOC(=O)C1CCC(NC(=O)[C@H](Cc2ccccc2)NC(=O)[C@H]2CC[C@H](CN)CC2)CC1` (some centres unmarked) [Compound 4]: 71.4% and 74.6%.
For `CCOC(=O)CNC(=O)[C@H](Cc1ccccc1)NC(=O)[C@H]1CC[C@H](CN)CC1` [Compound 5] (H-[Trx]-Phe-Gly-OEt), the inhibition in vivo at 100 mg/kg was 53.3% in experiment [1] and 76% in experiment [2].
As to `CCOC(=O)C1CCCC(NC(=O)[C@H](Cc2ccccc2)NC(=O)[C@H]2CC[C@H](CN)CC2)C1` (some centres unmarked) [Compound 6], the inhibition in vivo at 100 mg/kg in experiment [1] turned out to be 77.4%.
On the same count and under the same terms, then `CNC(=O)[C@H](Cc1ccccc1)NC(=O)[C@H]1CC[C@H](CN)CC1` [Compound 7, N-(trans-4-aminomethylcyclohexyl-carbonyl)-L-phenylalanine methylamide hydrochloride], with 52.6%.
Consider `CC(=O)c1ccc(NC(=O)[C@H](Cc2ccccc2)NC(=O)[C@H]2CC[C@H](CN)CC2)cc1` [Compound 8], for which the values for the inhibition in vivo at 100 mg/kg in experiment [1] and in experiment [2] were 73.2% and 65%, respectively.
In the same order, the values of `CN(C)C(=O)[C@H](Cc1ccccc1)NC(=O)[C@H]1CC[C@H](CN)CC1` [Compound 9, N-(trans-4-aminomethylcyclohexyl-carbonyl)-L-phenylalanine dimethylamide hydrochloride] are 73.6% and 77.6%.
Turning to `CCOC(=O)c1ccc(CNC(=O)[C@H](Cc2ccccc2)NC(=O)[C@H]2CC[C@H](CN)CC2)cc1` [Compound 10], the inhibition in vivo at 100 mg/kg in experiment [1] came to 60.4%; in experiment [2], 86.1%.
The matching figures for `CCOC(=O)C1CCN(C(=O)[C@H](Cc2ccccc2)NC(=O)[C@H]2CC[C@H](CN)CC2)CC1` [Compound 11]: 68.4% and 85.2%.
The matching figures for `NC[C@H]1CC[C@H](C(=O)N[C@@H](Cc2ccccc2)C(=O)Nc2ccc(C(N)=O)cc2)CC1` [Compound 13, N-(trans-4-aminomethylcyclohexyl-carbonyl)-L-phenylalanine 4-carbamoylanilide hydrochloride]: 85.7% and 64.8%.
Take `NC[C@H]1CC[C@H](C(=O)N[C@@H](Cc2ccccc2)C(=O)Nc2ccc(C(=O)O)cc2)CC1` [Compound 14, N-(trans-4-aminomethylcyclohexylcarbonyl)-L-phenylalanine 4-hydroxycarbonylanilide hydrochloride]: in experiment [1], the inhibition in vivo at 100 mg/kg was 74.8%.
Turning to `CC(C)(C)NC(=O)[C@H](Cc1ccccc1)NC(=O)[C@H]1CC[C@H](CN)CC1` [Compound 15], the inhibition in vivo at 100 mg/kg in experiment [1] amounted to 73.1%; in experiment [2] it was 76.4%.
Regarding `CC(=O)c1ccc(NC(=O)[C@H](Cc2ccccc2)NC(=O)c2ccc(CN)cc2)cc1` [Compound 16, N-(4-aminomethylbenzoyl)-L-phenylalanine 4-acetylanilide hydrochloride], in experiment [1], the inhibition in vivo at 100 mg/kg was 96.6%.
The same measure, in the same setting: then `CN(C)C(=O)[C@H](Cc1ccccc1)NC(=O)c1ccc(CN)cc1` [Compound 17], with 57.5%; and `CCOC(=O)c1cccc(NC(=O)[C@H](Cc2ccccc2)NC(=O)[C@H]2CC[C@H](CN)CC2)c1` [Compound 18], with 89.2%; and `CN(C)C(=O)[C@H](Cc1ccccc1)NC(=O)[C@H]1CC[C@H](CNC(=N)N)CC1` [Compound 19, N-(trans-4-guanidinomethylcyclohexylcarbonyl)-L-phenylalanine dimethylamide methanesulfonate], with 52.5%.
On to `CCOC(=O)[C@H](CO)NC(=O)[C@H](Cc1ccccc1)NC(=O)[C@H]1CC[C@H](CN)CC1` [Compound 20, Ethyl N-N-(trans-4-aminomethylcyclohexylcarbonyl)-L-phenylalanyl-L-serinate hydrochloride] (H-[Trx]-Phe-Ser-OEt), for which the inhibition in vivo at 100 mg/kg in experiment [1] was determined as 54.3%; in experiment [2], 70%.
`CCOC(=O)c1ccc(NC(=O)[C@H](Cc2ccccc2)NC(=O)[C@H]2CC[C@H](CN)CC2)cc1` [Compound 21]: in experiment [1], the inhibition in vivo at 100 mg/kg stood at 89.8%.
For `CN(C)C(=O)[C@H](Cc1ccccc1)NC(=O)c1ccc(C(=N)N)cc1` [Compound 22, N-(4-amidinobenzoyl)-L-phenylalanine dimethylamide hydroiodide], the values for the inhibition in vivo at 100 mg/kg in experiment [1] and in experiment [2] were 86% and 76.2%, respectively.
As for `CNC(=O)c1ccc(NC(=O)[C@H](Cc2ccccc2)NC(=O)[C@H]2CC[C@H](CN)CC2)cc1` [Compound 23, N-(trans-4-aminomethylcyclohexylcarbonyl)-L-phenylalanine 4-methylcarbamoylanilide hydrochloride], the inhibition in vivo at 100 mg/kg in experiment [1] stood at 79.9%.
For `CN(C)C(=O)c1ccc(NC(=O)[C@H](Cc2ccccc2)NC(=O)[C@H]2CC[C@H](CN)CC2)cc1` [Compound 24], the inhibition in vivo at 100 mg/kg in experiment [1] was found to be 82.6%; in experiment [2], 70.6%.
Turning to `CCOC(=O)CN(C)C(=O)[C@H](Cc1ccccc1)NC(=O)[C@H]1CC[C@H](CN)CC1` [Compound 25] (H-[Trx]-Phe-[Sar]-OEt), in experiment [1], the inhibition in vivo at 100 mg/kg was determined as 57.3%.
Still for that read-out and setting: then `NC[C@H]1CC[C@H](C(=O)N[C@@H](Cc2ccccc2)C(=O)Nc2cccc(C(N)=O)c2)CC1` [Compound 26], with 80.8%; and `NCc1ccc(C(=O)N[C@@H](Cc2ccccc2)C(=O)Nc2ccc(C(N)=O)cc2)cc1` [Compound 27, N-(4-aminomethylbenzoyl)-L-phenylalanine 4-carbamoylanilide hydrochloride], with 78.1%.
In the case of `N=C(N)c1ccc(C(=O)N[C@@H](Cc2ccccc2)C(=O)Nc2ccc(C(N)=O)cc2)cc1` [Compound 28, N-(4-amidinobenzoyl)-L-phenylalanine 4-carbamoylanilide methanesulfonate], the inhibition in vivo at 100 mg/kg was 69.8% in experiment [1] and 57.4% in experiment [2].
The matching figures for `CC(=O)c1ccc(NC(=O)[C@H](Cc2ccccc2)NC(=O)c2ccc(C(=N)N)cc2)cc1` [Compound 29]: 81% and 83.7%.
As for `CCOC(=O)CCNC(=O)[C@H](Cc1ccccc1)NC(=O)[C@H]1CC[C@H](CN)CC1` [Compound 30], the inhibition in vivo at 100 mg/kg in experiment [1] is 67.5%.
Turning to `NC[C@H]1CC[C@H](C(=O)N[C@@H](Cc2ccc(OCc3ccccc3)cc2)C(=O)Nc2cccnc2)CC1` [Compound 31], the inhibition in vivo at 100 mg/kg was determined as 92.3% in experiment [1] and 60% in experiment [2].

Source of the values: patent publication US4954512A, “Anti-ulcer composition” (Okamoto; Shosuke, priority 1987, dated 1990).
